Key:
[1] = test system: L-NAME/Angiotensin II/NaCl-treated rats; experiment: L-NAME/Angiotensin II/NaCl model of cardiac and renal injury (Example A-1); assay type: in vivo, Male Wistar rats
Experimental: Animals. Male Wistar rats (n=44), weighing 200 to 225 grams, and obtained from Charles River Laboratories (Wilmington, Mass.) were used in the study. All animals were housed in a room lighted 12 hours per day at an ambient temperature of 22±1° C. Animals were allowed one week to recover after arrival and had free access to Purina Lab Chow 5001 (Ralston Purina Inc, St. Louis, Mo.) and tap water until the initiation of the experiment. After initiation of the protocols, animals in all groups were placed in individual metabolic cages, handled and weighed daily. Twenty-four hour fluid intake, food intake and urine output were measured daily. […] On day 14 of L-NAME treatment, animals were decapitated, trunk blood was collected into chilled tubes containing ethylene diamine tetraacetic acid and the heart and kidneys were removed, blotted dry and immediately weighed. […] Drugs. Eplerenone was supplied by G.D. Searle Pharmaceuticals (St. […] Dexamethasone was dissolved in sesame oil and administered as a single subcutaneous dose (12 μg/kg/day) every day. This dose of dexamethasone has been reported to, maintain normal weight gain, glomerular filtration rate, and fasting plasma glucose and insulin levels in adrenalectomized rats. Stanton, B., Giebisch G et al. J. Clin. Invest 1985 75:1317-1326. The experiment was concluded on day 14 of L-NAME treatment. […] (Hou J et al. J. Clin. Invest 1995 96:2469-2477. […] This lower dose induced lesions in stroke-prone spontaneously hypertensive rats. (Rocha R et al. […] Dexamethasone, aldosterone and L-NAME were purchased from Sigma Chemical Co. (St. Louis, Mo.). […] Surgical Procedure. […] Bilateral adrenalectomy was performed using a dorsolumbar approach, making separate incisions on each side. […] No post operative deaths occurred. Assays and Analyses. Systolic blood pressure was measured in awake animals by tail-cuff plethysmography using a Natsume KN-210 manometer and tachometer (Peninsula Laboratories Inc, Belmont, Calif.). Rats were warmed at 37° C. for 10 minutes and allowed to rest quietly in a Lucite chamber before measurement of blood pressure. Urinary protein concentration was determined in urine collected on the last day of the experiment using the sulfosalicylic acid turbidity method. […] Plasma aldosterone concentration was determined using a standard radioimmunoassay-kit from Diagnostic Products Co. (Los Angeles, Calif.). Plasma renin activity (“PRA”) was determined by radioimmunoassay detection of generated angiotensin I (DiaSorin Inc., Stillwater, Minn.). Histology. Hearts were stained with collagen specific dye Sirius red for determination of fibrosis as reported elsewhere. (Young M et al. Am. J. Physiol 1995 269:[…]-[…]). Interstitial collagen was determined using an automated image analyzer. The hearts were also stained with hematoxylin and eosin for light microscopic analysis. Two or three slices of different sections of the heart containing both right and left ventricle were analyzed from each animal. […] Glomerular damage, when present, was characterized as the presence of either segmental or global sclerosis with ischemic or thrombotic changes. Renal arterial and arteriolar damage was categorized as the presence of fibrinoid necrosis of the vascular wall. The renal arterial and arteriolar profiles presenting damage were counted and the number of injured vessels per section was divided by the number of glomeruli in the same section in order to normalize for the amount of tissue examined. […] Statistical analysis. Data were tested for normality using the Kolmogorov-Smirnov test. Systolic blood pressure was analyzed using repeated measures-analysis of variance for time and treatment group. One-way analysis of variance was used for normally distributed data with one grouping variable. Post-hoc analysis was performed using Newman Keuls multiple-comparison test. Data that were not normally distributed were analyzed with the Kruskal-Wallis test. […]

[2] = test system: saline-hydrated conscious dogs treated with aldosterone; experiment: Antimineralocorticoid action in saline-hydrated conscious dogs treated with aldosterone (Example A-2); assay type: in vivo; settings: aldosterone i.v. infusion; antagonist 10 mg/kg orally
[3] = test system: patients not controlled with ACE-I or ARB; experiment: Co-administration of eplerenone with ACE-I or ARB in mild-moderate hypertension (Example D-9); assay type: in vivo, human
Experimental: Patients examined in the study were those who currently were treated with an ACE-I and/or ARB and who had DBP ≧95 mmHg and <110 mmHg and SBP <180 mmHg. Previous antihypertensive therapy was withdrawn except a fixed dose of single ACE-I or ARB.

[4] = test system: patients with mild-to-moderate hypertension; experiment: Long-term open-label safety and efficacy study of eplerenone (Example D-11); assay type: in vivo, human; set-up: mean change from baseline SBP: unit not given beside the values; settings: for Change Mean seated DBP, Baseline to End of Treatment / Change Mean seated SBP, Baseline to End of Treatment: Responders, ITT
Experimental: This 6- to 16-month, open-label, single-group, titration-to-effect study assessed the safety, tolerability, and efficacy of EPL in patients with mild-to-moderate hypertension.
Patients (n=586) with DBP ≧90 mmHg and <110 mmHg, or SBP ≧140 mmHg and <180 mmHg, received EPL 50 mg QD. If BP was uncontrolled at Weeks 2 or 4 (DBP ≧90 mmHg or SBP ≧140 mmHg), EPL was up-titrated to 100 mg QD and, if necessary, 200 mg QD. If BP remained uncontrolled at any time from Week 6 to the end of Month 3, a second antihypertensive medication of the investigator's choice was added. Safety, tolerability, and BP were assessed at protocol-specified times.

[5] = addition of eplerenone, 8 weeks
[6] = EPL 200 mg plus add-on therapy (N=172)
[7] = subgroup 50, 100, 200 mg QD + Ahyp (add-on therapy)
[8] = final dose level EPL 50 mg (N=68)
[9] = final dose level EPL 100 mg (N=89)
[10] = final dose level EPL 200 mg (N=104)

SMILES: COC(=O)[C@@H]1CC2=CC(=O)CC[C@]2(C)[C@@]23O[C@@H]2C[C@@]2(C)[C@@H](CC[C@@]24CCC(=O)O4)[C@H]13 [Eplerenone, Pregn-4-ene-7,21-dicarboxylic acid, 9,11-epoxy-17-hydroxy-3-oxo-, γ-lactone, methyl ester, (7α, 11α, 17β)-]
- HW/BW (cardiac hypertrophy index) ([1]; end of experiment (day 14), Epl 100 mg/kg/day p.o., ALDO 40 μg/kg/day in adrenalectomized rats): significantly reduced cardiac hypertrophy
- SBP ([1]; end of experiment, Epl 100 mg/kg/day p.o., ALDO 40 μg/kg/day in adrenalectomized rats): not appreciably influenced
- urinary protein excretion (24 hour) ([1]; end of two-week treatment, eplerenone 100 mg/kg/day p.o.): prevented the development of proteinuria
- cardiac injury / myocardial necrosis (histopathology) ([1]; eplerenone 100 mg/kg/day p.o., vs L-NAME/Angiotensin II/NaCl): markedly reduced
- Na/K Ratio [2]: 2.1
- Urinary Excretion Potassium [2]: 11.9 ± 1 mmol/2 h
- Urinary Excretion Sodium [2]: 24.4 ± 3 mmol/2 h
- laboratory abnormalities, K+, adverse events ([3]; addition of eplerenone to ACE-I or ARB): No significant increase in relevant laboratory abnormalities
- SBP & DBP in patients currently treated with ARB [3, 5]: Significant reductions in SBP & DBP
- SBP in patients currently treated with ACE-I [3, 5]: Significant reductions in SBP
- heart rate ([3]; either group): No change in heart rate
- patients responding to eplerenone monotherapy ([4]; 261/582): 44.8%
- mean change from baseline DBP [4, 6]: −14.6
- mean change from baseline SBP [4, 6]: −24.9
- Change Mean seated DBP, Baseline to End of Treatment ([4]; subgroup 50 mg QD): −10.6 mmHg
- Change Mean seated SBP, Baseline to End of Treatment ([4]; subgroup 50 mg QD): −15.9 mmHg
- Change Mean seated DBP, Baseline to End of Treatment ([4]; subgroup 50, 100 mg QD): −12.2 mmHg
- Change Mean seated SBP, Baseline to End of Treatment ([4]; subgroup 50, 100 mg QD): −18.1 mmHg
- Change Mean seated DBP, Baseline to End of Treatment ([4]; subgroup 50, 100, 200 mg QD): −12.5 mmHg
- Change Mean seated SBP, Baseline to End of Treatment ([4]; subgroup 50, 100, 200 mg QD): −19.1 mmHg
- Change Mean seated DBP, Baseline to End of Treatment [4, 7]: −14.6 mmHg
- Change Mean seated SBP, Baseline to End of Treatment [4, 7]: −24.9 mmHg
- gynecomastia ([4]; doses of 50, 100, and 200 mg): 0.7%
- mean change from baseline DBP [4, 8]: −10.6
- mean change from baseline SBP [4, 8]: −15.9
- mean change from baseline DBP [4, 9]: −12.2
- mean change from baseline SBP [4, 9]: −18.1
- mean change from baseline DBP [4, 10]: −12.5
- mean change from baseline SBP [4, 10]: −19.1
- patients with treatment-emergent AEs of probable relationship to study medication ([4]; in vivo): 8.4%
- patients with treatment-emergent AEs of uncertain relationship to study medication ([4]; in vivo): 21.5%
- responders at the end of treatment, number ([4]; of 582 patients): 433 patients
- responders (seDBP<90 mmHg or ≧10 mmHg decrease from Baseline) at the end of treatment ([4]; of 582 patients, EPL 50-200 mg QD with or without add-on): 74.3%
- patients with elevated K+ levels ([4]; primarily those receiving EPL 200 mg): 2.4%
- safety and tolerability ([4]; up to 14 months, 50-200 mg daily alone or 200 mg/day with another antihypertensive agent): safe and well tolerated

From patent publication US20070191324A1, “Methods for treatment or prophylaxis of aldosterone-mediated pathogenic effects in a subject using an epoxy-steroidal aldosterone antagonist” (priority 1999, published 2007)
